Assay results as given in ChEMBL document CHEMBL1201862, “PubChem BioAssay data set” (2004).
Active and inactive are the calls of the source.

Key:
[1] = target: DNA repair and recombination protein RAD54-like (Homo sapiens, UniProt Q92698); assay: inhibitors of human RAD54 branch migration, confirmation, biochemical, fluorescence, cherry-picked samples, dose series (AID 651657); assay type: functional
[2] = target: T1, RNA-binding protein pos-1 (Caenorhabditis elegans, UniProt G5EF15); assay: inhibitors of POS-1/mex-3 RNA binding, dose response, biochemical, fluorescence polarization (AID 1964);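 also: purified POS-1 fused to maltose binding protein made in E. coli; potency of compounds blocking POS-1 binding to fluorescent RNA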
T1 sequence (G5EF15 whole entry): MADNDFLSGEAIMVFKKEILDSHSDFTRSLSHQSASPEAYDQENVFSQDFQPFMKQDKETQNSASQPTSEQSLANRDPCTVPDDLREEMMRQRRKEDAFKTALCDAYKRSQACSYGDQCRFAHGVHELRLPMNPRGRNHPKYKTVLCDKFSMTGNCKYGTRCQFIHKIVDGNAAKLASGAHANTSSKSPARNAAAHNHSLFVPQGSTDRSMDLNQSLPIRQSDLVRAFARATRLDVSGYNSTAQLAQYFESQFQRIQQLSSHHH

[3] = target: T2, Zinc finger protein mex-5 (Caenorhabditis elegans, UniProt Q9XUB2); assay: MEX-5/TCR-2 RNA interaction inhibitors, dose response, biochemical, C. elegans, fluorescence polarization (AID 1960)
T2 sequence (Q9XUB2 whole entry): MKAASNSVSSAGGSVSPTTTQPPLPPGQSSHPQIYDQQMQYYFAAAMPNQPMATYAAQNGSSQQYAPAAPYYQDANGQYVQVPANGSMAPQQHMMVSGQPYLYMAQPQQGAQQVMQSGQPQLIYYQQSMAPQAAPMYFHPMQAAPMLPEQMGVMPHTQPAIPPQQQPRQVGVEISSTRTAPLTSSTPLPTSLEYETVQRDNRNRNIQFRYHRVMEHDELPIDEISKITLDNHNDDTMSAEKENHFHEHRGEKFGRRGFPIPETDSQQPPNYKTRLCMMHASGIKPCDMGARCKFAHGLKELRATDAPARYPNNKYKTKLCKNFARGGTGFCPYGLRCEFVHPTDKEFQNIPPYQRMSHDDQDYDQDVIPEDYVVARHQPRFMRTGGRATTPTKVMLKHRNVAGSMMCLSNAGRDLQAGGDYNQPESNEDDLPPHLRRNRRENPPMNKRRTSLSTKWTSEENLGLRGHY

CHO-K1 = assay: (§1) Counterscreen for antagonists of the orexin 1 receptor (OX1R; HCRTR1): Homogeneous time resolved fluorescence (HTRF)-based cell-based dose response assay to identify antagonists of the parental CHO-K1 cell line. [Related pubchem assays (depositor defined):AID434989, AID435008, AID463079, AID485270, AID492963, AID492964, AID492965, AID493232, AID504699, AID504701]; assay type: functional; conditions: Cricetulus griseus
Bcl-2-related protein A1 = target: T3, Bcl-2-related protein A1 (Mus musculus, UniProt Q07440); assay type: functional;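 also: confirmatory dose–response counterscreen on Bfl-1, used to check hits from a UBC13 polyubiquitin inhibitor campaign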
T3 sequence (Q07440 whole entry): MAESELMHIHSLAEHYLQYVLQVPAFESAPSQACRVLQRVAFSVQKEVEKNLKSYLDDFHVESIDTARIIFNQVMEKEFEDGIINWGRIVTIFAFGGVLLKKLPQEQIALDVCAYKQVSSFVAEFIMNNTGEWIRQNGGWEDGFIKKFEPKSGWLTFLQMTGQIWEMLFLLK

[4] = target: T4, Ubiquitin-conjugating enzyme E2 N (Homo sapiens, UniProt P61088); assay type: functional
T4 sequence (P61088 whole entry): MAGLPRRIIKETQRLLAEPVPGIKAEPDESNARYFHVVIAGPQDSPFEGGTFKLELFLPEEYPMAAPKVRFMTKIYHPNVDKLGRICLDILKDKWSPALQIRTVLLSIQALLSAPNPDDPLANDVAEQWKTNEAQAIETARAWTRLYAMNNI

[5] = as §1, with “Fluorescence-based” for “Homogeneous time resolved fluorescence (HTRF)-based”, “cell-based high throughput” for “cell-based”, “CHO” for “CHO-K1”; assay type: functional
[6] = target: T5, Orexin/Hypocretin receptor type 1 (Homo sapiens, UniProt O43613); assay: Homogeneous Time Resolved Fluorescence (HTRF)-based cell-based high throughput dose response assay for antagonists of the orexin 1 receptor (OX1R; HCRTR1). [Related pubchem assays (depositor defined):AID434989, AID435008, AID463079, AID485270, AID492963, AID492964, AID492965, AID493232, AID504717, AID504718]; assay type: functional
T5 sequence (O43613 whole entry): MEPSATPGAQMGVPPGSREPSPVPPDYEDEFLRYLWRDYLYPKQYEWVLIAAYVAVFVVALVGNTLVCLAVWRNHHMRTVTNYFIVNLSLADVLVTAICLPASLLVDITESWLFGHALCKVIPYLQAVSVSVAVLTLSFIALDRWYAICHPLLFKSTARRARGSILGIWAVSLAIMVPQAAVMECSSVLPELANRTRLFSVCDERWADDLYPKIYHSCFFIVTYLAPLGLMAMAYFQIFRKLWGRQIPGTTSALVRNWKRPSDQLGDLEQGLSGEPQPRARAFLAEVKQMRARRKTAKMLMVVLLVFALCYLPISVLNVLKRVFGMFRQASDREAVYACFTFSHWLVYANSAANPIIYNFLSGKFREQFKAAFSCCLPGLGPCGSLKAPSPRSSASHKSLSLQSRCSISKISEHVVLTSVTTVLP

[7] = target: T4, Ubiquitin-conjugating enzyme E2 N; assay type: functional; remark: listed apart in the source
[8] = target: T5, Orexin/Hypocretin receptor type 1; assay: Fluorescence-based cell-based high throughput dose response assay for antagonists of the orexin 1 receptor (OX1R; HCRTR1). [Related pubchem assays (depositor defined):AID434989, AID435008, AID463079, AID485270, AID492963, AID492964, AID492965, AID493232, AID504717, AID504718]; assay type: functional
[9] = target: T6, Polyadenylate-binding protein 1 (Homo sapiens, UniProt P11940); assay: PABP1 MLLE–PAM2 interaction inhibitors, dose response, miRNA deadenylation inhibitor project, biochemical, fluorescence polarization, Cy5-PAM2 peptide, secondary (AID 602260); assay type: functional; conditions: read-out: IC50_Mean
[10] = target: T6, Polyadenylate-binding protein 1; assay: PABP1 MLLE–PAM2 binding inhibitor potency, dose response, biochemical, fluorescence polarization, FITC-PAM2 peptide (AID 602259); assay type: functional; conditions: read-out: IC50_Mean
Orexin receptor type 2 [11] = target: T7, Orexin receptor type 2 (Homo sapiens, UniProt O43614); assay: Counterscreen assay for antagonists of the orexin 1 receptor (OX1R; HCRTR1): Fluorescence-based cell-based dose response assay for antagonists of the orexin 2 receptor (OX2R; HCRTR2), run by assay provider.; assay type: functional
T7 sequence (O43614 whole entry): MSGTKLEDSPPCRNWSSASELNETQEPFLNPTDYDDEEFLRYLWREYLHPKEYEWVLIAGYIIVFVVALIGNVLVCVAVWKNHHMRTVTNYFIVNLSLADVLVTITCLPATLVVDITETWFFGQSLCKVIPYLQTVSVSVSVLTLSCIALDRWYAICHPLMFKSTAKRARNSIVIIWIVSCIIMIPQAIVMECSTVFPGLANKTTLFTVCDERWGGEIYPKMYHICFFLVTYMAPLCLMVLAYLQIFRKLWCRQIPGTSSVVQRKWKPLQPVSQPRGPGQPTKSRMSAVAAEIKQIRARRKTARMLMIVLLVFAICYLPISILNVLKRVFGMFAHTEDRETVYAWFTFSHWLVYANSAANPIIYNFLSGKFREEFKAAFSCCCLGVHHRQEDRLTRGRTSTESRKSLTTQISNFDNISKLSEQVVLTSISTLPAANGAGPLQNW

Orexin receptor type 2 [12] = target: T7, Orexin receptor type 2; assay: Counterscreen assay for antagonists of the orexin 1 receptor (OX1R; HCRTR1): Homogeneous Time Resolved Fluorescence (HTRF)-based cell-based dose response assay for antagonists of the orexin 2 receptor (OX2R; HCRTR2), run by assay provider.; assay type: functional
[13] = target: T8, Rac GTPase-activating protein 1 (Homo sapiens, UniProt Q9H0H5); assay: MgcRacGAP GTPase-activating activity inhibitors, confirmation, biochemical, ADP Hunter fluorescence, primary and confirmatory (AID 624330); assay type: functional
T8 sequence (Q9H0H5 whole entry): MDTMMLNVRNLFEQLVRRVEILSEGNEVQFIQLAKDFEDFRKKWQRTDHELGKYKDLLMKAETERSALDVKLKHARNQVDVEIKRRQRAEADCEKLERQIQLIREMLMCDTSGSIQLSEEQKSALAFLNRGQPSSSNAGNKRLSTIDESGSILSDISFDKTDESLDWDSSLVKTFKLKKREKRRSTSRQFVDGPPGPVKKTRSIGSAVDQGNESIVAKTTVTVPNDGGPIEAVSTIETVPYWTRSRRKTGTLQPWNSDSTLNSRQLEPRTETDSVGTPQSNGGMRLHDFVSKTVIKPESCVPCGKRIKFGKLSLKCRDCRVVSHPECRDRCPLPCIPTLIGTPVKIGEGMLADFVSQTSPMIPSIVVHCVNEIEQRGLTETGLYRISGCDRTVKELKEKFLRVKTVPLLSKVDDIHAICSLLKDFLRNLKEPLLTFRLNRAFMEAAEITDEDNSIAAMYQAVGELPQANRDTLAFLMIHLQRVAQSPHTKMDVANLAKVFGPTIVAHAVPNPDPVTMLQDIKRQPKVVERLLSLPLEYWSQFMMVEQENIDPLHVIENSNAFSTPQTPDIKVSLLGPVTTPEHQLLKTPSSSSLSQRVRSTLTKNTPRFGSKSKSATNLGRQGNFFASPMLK

[14] = Luminescence Cell-Based Dose Confirmation HTS to Identify Activators of 5'UTR Stem-Loop Driven Alpha-Synuclein mRNA Translation in H4 Neuroglioblastoma Cells. [Related pubchem assays: 1829 (Project Summary), 1814 (Primary HTS)]; assay type: functional
[15] = Luminescence Cell-Based Dose Response HTS to Identify Activators of Luciferase Translation or Activity in H4 […] Cells. [Related pubchem assays: 1829 (Project Summary), 1814 (Primary HTS)]; assay type: functional
H4 = assay: Luminescence Cell-Based Dose Response HTS to Identify Activators of 5'UTR Stem-Loop Driven Prion Protein mRNA Translation in H4 Neuroglioblastoma Cells. [Related pubchem assays: 1829 (Project Summary), 1814 (Primary HTS)]; assay type: functional; conditions: Homo sapiens
[16] = Counterscreen for inhibitors of Trypanosoma brucei methionyl tRNA synthetase (MetRS): Luminescence-based cell-based high throughput dose response assay to identify compounds that are cytotoxic to Jurkat human T lymphocyte cells.; assay type: functional

T6 sequence (P11940 whole entry): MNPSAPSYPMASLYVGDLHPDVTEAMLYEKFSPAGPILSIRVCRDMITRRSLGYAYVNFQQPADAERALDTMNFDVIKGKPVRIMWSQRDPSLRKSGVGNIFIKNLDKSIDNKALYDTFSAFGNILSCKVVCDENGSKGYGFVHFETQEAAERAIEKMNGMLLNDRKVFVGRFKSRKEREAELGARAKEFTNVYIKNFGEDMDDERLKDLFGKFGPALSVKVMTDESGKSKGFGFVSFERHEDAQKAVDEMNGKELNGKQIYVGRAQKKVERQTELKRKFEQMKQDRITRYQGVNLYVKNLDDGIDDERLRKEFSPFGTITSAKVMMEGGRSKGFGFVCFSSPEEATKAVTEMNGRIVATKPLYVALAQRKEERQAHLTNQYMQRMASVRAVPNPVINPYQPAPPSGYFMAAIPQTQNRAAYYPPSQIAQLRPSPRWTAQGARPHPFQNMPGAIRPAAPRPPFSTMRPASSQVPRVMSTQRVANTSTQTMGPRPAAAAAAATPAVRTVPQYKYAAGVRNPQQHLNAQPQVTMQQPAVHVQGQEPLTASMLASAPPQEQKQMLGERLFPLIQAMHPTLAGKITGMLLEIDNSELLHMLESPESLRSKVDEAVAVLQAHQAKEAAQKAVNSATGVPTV
DNA repair and recombination protein RAD54-like, sequence (Q92698 whole entry, the tested form may be a part): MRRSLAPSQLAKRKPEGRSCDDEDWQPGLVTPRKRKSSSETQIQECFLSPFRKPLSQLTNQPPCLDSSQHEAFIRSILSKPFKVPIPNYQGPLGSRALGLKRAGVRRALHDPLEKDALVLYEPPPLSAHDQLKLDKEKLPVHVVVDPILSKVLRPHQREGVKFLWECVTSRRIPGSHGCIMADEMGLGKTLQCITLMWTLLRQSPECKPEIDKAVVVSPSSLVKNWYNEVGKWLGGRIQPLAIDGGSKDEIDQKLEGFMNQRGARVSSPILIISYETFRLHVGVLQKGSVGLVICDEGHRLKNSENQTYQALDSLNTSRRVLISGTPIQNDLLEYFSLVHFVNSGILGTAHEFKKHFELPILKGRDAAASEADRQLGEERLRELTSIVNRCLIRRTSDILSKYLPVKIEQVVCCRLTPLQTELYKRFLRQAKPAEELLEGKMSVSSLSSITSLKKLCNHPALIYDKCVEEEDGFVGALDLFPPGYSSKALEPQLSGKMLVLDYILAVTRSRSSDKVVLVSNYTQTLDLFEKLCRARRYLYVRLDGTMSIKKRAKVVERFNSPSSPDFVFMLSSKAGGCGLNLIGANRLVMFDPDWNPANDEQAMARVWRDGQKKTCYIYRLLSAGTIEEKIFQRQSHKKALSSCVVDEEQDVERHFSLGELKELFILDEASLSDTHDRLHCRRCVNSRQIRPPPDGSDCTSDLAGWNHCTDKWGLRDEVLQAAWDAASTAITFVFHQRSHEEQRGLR

O=c1c2ccccc2oc2ccc(NCCCN3CCOCC3)cc12
AC50 [1]: 34.2 µM (active)

Oc1ccc(NC(=S)N=Nc2c(O)[nH]c3ccccc23)cc1
EC50 [2]: 16.3 µM (active)
EC50 [3]: 3.98 µM (active)
IC50 (CHO-K1): > 66.2 µM (inactive)
IC50 (Bcl-2-related protein A1): > 20 µM (inactive)
IC50 [4]: 2.17 µM (active)
IC50 [5]: > 49.8 µM (inactive)
IC50 [6]: 3.24 µM (active)
IC50 [7]: 0.763 µM (active)
IC50 [8]: 43.6 µM (inactive)
IC50 [9]: > 66 µM (inactive)
IC50 [10]: > 66 µM (inactive)
IC50 (Orexin receptor type 2 [11]): > 88.8 µM (inactive)
IC50 (Orexin receptor type 2 [12]): > 50 µM (inactive)
IC50 [13]: 21.5 µM (active)

Cc1ccc2[nH]c(-c3ccc(SCC(=O)Nc4ccc5c(c4)OCCO5)nc3)nc2c1
EC50 [14]: 1.13 µM (active)
EC50 [15]: 1.99 µM (active)
EC50 (H4): 11.3 µM (active)
IC50 [16]: 83.3 µM (inactive)
